Laboratory results reported in PubChem BioAssay AID1963962 (Molecular Pharmacology Branch, DTP, NCI, 2024).

Test system: 967376-340-R-J2-PDC multicell spheroid viability
Assay: Anticancer human tumor 967376-340-R-J2-PDC patient-derived colon adenocarcinoma cell line growth inhibition [PI3K]
Conditions: for IC50: curve of first compound; for viability, T/C: stronger effect = lower value
Method in brief: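 Agents were dosed from a top concentration near clinical Cmax (otherwise 10 microM) in half-log decrements, alone or combined with PI3K inhibitors. The spheroids contain tumor cells plus endothelial (HUVEC) and MSC stroma; viability is measured.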

[1] = second compound 0.0316 µM, first compound 0.0316 µM
[2] = second compound 0.0316 µM, first compound 0.1 µM
[3] = second compound 0.0316 µM, first compound 0.316 µM
[4] = second compound 0.0316 µM, first compound 1 µM
[5] = second compound 0.0316 µM, first compound 3.16 µM
[6] = second compound 0.0316 µM, first compound 10 µM
[7] = second compound 0.1 µM, first compound 0.0316 µM
[8] = second compound 0.1 µM, first compound 0.1 µM
[9] = second compound 0.1 µM, first compound 0.316 µM
[10] = second compound 0.1 µM, first compound 1 µM
[11] = second compound 0.1 µM, first compound 3.16 µM
[12] = second compound 0.1 µM, first compound 10 µM
[13] = second compound 0.316 µM, first compound 0.0316 µM
[14] = second compound 0.316 µM, first compound 0.1 µM
[15] = second compound 0.316 µM, first compound 0.316 µM
[16] = second compound 0.316 µM, first compound 1 µM
[17] = second compound 0.316 µM, first compound 3.16 µM
[18] = second compound 0.316 µM, first compound 10 µM
[19] = second compound 1 µM, first compound 0.0316 µM
[20] = second compound 1 µM, first compound 0.1 µM
[21] = second compound 1 µM, first compound 0.316 µM
[22] = second compound 1 µM, first compound 1 µM
[23] = second compound 1 µM, first compound 3.16 µM
[24] = second compound 1 µM, first compound 10 µM
[25] = second compound 3.16 µM, first compound 0.0316 µM
[26] = second compound 3.16 µM, first compound 0.1 µM
[27] = second compound 3.16 µM, first compound 0.316 µM
[28] = second compound 3.16 µM, first compound 1 µM
[29] = second compound 3.16 µM, first compound 3.16 µM
[30] = second compound 3.16 µM, first compound 10 µM
[31] = second compound 10 µM, first compound 0.0316 µM
[32] = second compound 10 µM, first compound 0.1 µM
[33] = second compound 10 µM, first compound 0.316 µM
[34] = second compound 10 µM, first compound 1 µM
[35] = second compound 10 µM, first compound 3.16 µM
[36] = second compound 10 µM, first compound 10 µM
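Note: spheroids exposed to agents for 7 days before read-out.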
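Throughout, for viability, T/C: luminescence used as surrogate of cell viability.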

Which IC50 (second compound 0.0316 µM) does the source give for `CC1(C)CCC(CN2CCN(c3ccc(C(=O)NS(=O)(=O)c4ccc(NCC5CCOCC5)c([N+](=O)[O-])c4)c(Oc4cnc5[nH]ccc5c4)c3)CC2)=C(c2ccc(Cl)cc2)C1` + CC(Nc1ncnc2nc[nH]c12)c1cc2cccc(Cl)c2c(=O)n1-c1ccccc1 here?
Its IC50 is greater than 10 µM.

And the IC50 (second compound 0.1 µM)?
The IC50 was greater than 10 µM.

And the IC50 (second compound 0.316 µM)?
The IC50 was greater than 10 µM.

And the IC50 (second compound 1 µM)?
The IC50 was greater than 10 µM.

And the IC50 (second compound 3.16 µM)?
The IC50 was greater than 10 µM.

And the IC50 (second compound 10 µM)?
Its IC50 is greater than 10 µM.

What about the viability, T/C [1] of the same compound?
Its viability, T/C is 92%.

And the viability, T/C [2]?
Its viability, T/C is 83.4%.

And the viability, T/C [3]?
Its viability, T/C is 98.1%.

What about the viability, T/C [4] of the same compound?
The viability, T/C was 83.8%.

And the viability, T/C [5]?
The viability, T/C was 75.6%.

And the viability, T/C [6]?
The viability, T/C was 92.2%.

And the viability, T/C [7]?
The viability, T/C was 95.1%.

What about the viability, T/C [8] of the same compound?
Its viability, T/C is 79.7%.

And the viability, T/C [9]?
Its viability, T/C is 82.7%.

What about the viability, T/C [10] of the same compound?
Its viability, T/C is 87.3%.

And the viability, T/C [11]?
The viability, T/C was 86.3%.

What about the viability, T/C [12] of the same compound?
The viability, T/C was 75.2%.

And the viability, T/C [13]?
The viability, T/C was 102%.

What about the viability, T/C [14] of the same compound?
The viability, T/C was 101%.

And the viability, T/C [15]?
The viability, T/C was 83%.

What about the viability, T/C [16] of the same compound?
The viability, T/C was 83.1%.

What about the viability, T/C [17] of the same compound?
The viability, T/C was 86.5%.

And the viability, T/C [18]?
The viability, T/C was 71.6%.

And the viability, T/C [19]?
Its viability, T/C is 88.5%.

What about the viability, T/C [20] of the same compound?
Its viability, T/C is 115%.

And the viability, T/C [21]?
Its viability, T/C is 116%.

And the viability, T/C [22]?
The viability, T/C was 87.8%.

What about the viability, T/C [23] of the same compound?
Its viability, T/C is 79%.

And the viability, T/C [24]?
Its viability, T/C is 74.1%.

And the viability, T/C [25]?
The viability, T/C was 90.4%.

And the viability, T/C [26]?
Its viability, T/C is 86%.

What about the viability, T/C [27] of the same compound?
Its viability, T/C is 67.6%.

And the viability, T/C [28]?
The viability, T/C was 82.9%.

What about the viability, T/C [29] of the same compound?
The viability, T/C was 79.1%.

What about the viability, T/C [30] of the same compound?
The viability, T/C was 101%.

What about the viability, T/C [31] of the same compound?
The viability, T/C was 55.1%.

And the viability, T/C [32]?
Its viability, T/C is 73.3%.

What about the viability, T/C [33] of the same compound?
The viability, T/C was 83.4%.

What about the viability, T/C [34] of the same compound?
The viability, T/C was 74.7%.

What about the viability, T/C [35] of the same compound?
Its viability, T/C is 68%.

What about the viability, T/C [36] of the same compound?
The viability, T/C was 76.3%.

With `C[C@@H](NC(=O)c1ncnc(N)c1Cl)c1ncc(C(=O)Nc2cc(C(F)(F)F)c(Cl)cn2)s1` + CC(Nc1ncnc2nc[nH]c12)c1cc2cccc(Cl)c2c(=O)n1-c1ccccc1 as the compound, how does the IC50 (second compound 0.0316 µM) read?
The IC50 was greater than 10 µM.

And the IC50 (second compound 0.1 µM)?
Its IC50 is greater than 10 µM.

And the IC50 (second compound 0.316 µM)?
The IC50 was greater than 10 µM.

What about the IC50 (second compound 1 µM) of the same compound?
The IC50 was greater than 10 µM.

And the IC50 (second compound 3.16 µM)?
Its IC50 is greater than 10 µM.

And the IC50 (second compound 10 µM)?
The IC50 was greater than 10 µM.

What about the viability, T/C [1] of the same compound?
Its viability, T/C is 100%.

And the viability, T/C [2]?
The viability, T/C was 129%.

And the viability, T/C [3]?
The viability, T/C was 109%.

And the viability, T/C [4]?
Its viability, T/C is 104%.

And the viability, T/C [5]?
Its viability, T/C is 101%.

What about the viability, T/C [6] of the same compound?
The viability, T/C was 98.9%.

And the viability, T/C [7]?
The viability, T/C was 123%.

And the viability, T/C [8]?
The viability, T/C was 112%.

And the viability, T/C [9]?
Its viability, T/C is 90.5%.

What about the viability, T/C [10] of the same compound?
Its viability, T/C is 102%.

What about the viability, T/C [11] of the same compound?
Its viability, T/C is 110%.

And the viability, T/C [12]?
The viability, T/C was 117%.

And the viability, T/C [13]?
The viability, T/C was 92.5%.

What about the viability, T/C [14] of the same compound?
The viability, T/C was 102%.

And the viability, T/C [15]?
Its viability, T/C is 109%.

What about the viability, T/C [16] of the same compound?
The viability, T/C was 107%.

What about the viability, T/C [17] of the same compound?
The viability, T/C was 96.9%.

What about the viability, T/C [18] of the same compound?
Its viability, T/C is 110%.

What about the viability, T/C [19] of the same compound?
The viability, T/C was 114%.

And the viability, T/C [20]?
Its viability, T/C is 97.8%.

And the viability, T/C [21]?
Its viability, T/C is 99.7%.

What about the viability, T/C [22] of the same compound?
Its viability, T/C is 90.7%.

And the viability, T/C [23]?
Its viability, T/C is 127%.

What about the viability, T/C [24] of the same compound?
Its viability, T/C is 106%.

What about the viability, T/C [25] of the same compound?
Its viability, T/C is 95.9%.

And the viability, T/C [26]?
The viability, T/C was 92.2%.

What about the viability, T/C [27] of the same compound?
Its viability, T/C is 106%.

And the viability, T/C [28]?
The viability, T/C was 92.8%.

And the viability, T/C [29]?
Its viability, T/C is 97.3%.

And the viability, T/C [30]?
Its viability, T/C is 113%.

What about the viability, T/C [31] of the same compound?
The viability, T/C was 79.7%.

And the viability, T/C [32]?
Its viability, T/C is 97.2%.

And the viability, T/C [33]?
The viability, T/C was 106%.

And the viability, T/C [34]?
The viability, T/C was 97.1%.

What about the viability, T/C [35] of the same compound?
The viability, T/C was 107%.

What about the viability, T/C [36] of the same compound?
Its viability, T/C is 119%.
